Assay results from PMC11292626, “5-Fluoroindole Reduces the Bacterial Burden in a Murine Model of Mycobacterium tuberculosis Infection” (ACS Omega, 2024).
≈ marks a conversion by molar mass, not a printed value.

Columns and labels:
Experiment in all cases: microbe, parasite or virus in culture
Format in all cases: cell-based
[1] = tested on: M. tuberculosis PT2 strain; conditions: Mycobacterium tuberculosis, PT2STRAIN, read-out: MIC PT2
[2] = tested on: M. tuberculosis PT12 strain; conditions: Mycobacterium tuberculosis, PT12STRAIN, read-out: MIC PT12
[3] = tested on: M. tuberculosis PT20 strain; conditions: Mycobacterium tuberculosis, PT20STRAIN, read-out: MIC PT20

## Fc1ccc2[nH]ccc2c1 [Compound 1, 5-Fluoroindole]
[1]
  MIC: 4.7 µM (≈ 0.635 µg/mL)
[2]
  MIC: 4.7 µM (≈ 0.635 µg/mL)
[3]
  MIC: 4.7 µM (≈ 0.635 µg/mL)

## NNC(=O)c1ccncc1 [INH, isoniazid, reference compound]
[2]
  MIC: 146 µM (≈ 20 µg/mL)
